{
  "source": "patent US20210322509A1",
  "about": "“Methods for Reducing Perinatal Morbidity and / or Mortality” (CHU SAINTE-JUSTINE, priority 2016, published 2021)",
  "type_in_all_cases": "in vivo, mice",
  "key": {"[1]": {"test_system": "IL-1β, IL-6, IL-8 and PGF2α in amniotic fluid", "assay": "ELISA of pro-inflammatory mediators in amniotic fluid 24 h after IL-1β injection", "settings": "for levels of all pro-inflammatory mediators (IL-1β, IL-6, IL-8, PGF2α) in amniotic fluid: relative to vehicle", "method": "FIGS. 2A to 2D show the levels of the pro-inflammatory mediators IL-1β (FIG. 2A), IL-6 (FIG. 2B), IL-8 (FIG. 2C) and PGF2a (FIG. 2D) in the amniotic fluid (AF) collected 24 h after IL-1β injection and treatment with vehicle, Compound 1 or Kineret, as assessed by ELISA. One-way ANOVA compared to IL-1β+Veh. **p<0.01, ***p<0.001. STATS: n=4; 4 gestational sacs from 2 animals in each groups.\nIntrauterine […] perinatal inflammation model. Timed-pregnant CD-1 mice at 16.5 days of gestation were steadily anesthetized with an isoflurane mask. After body hair removal from the peritoneal area, a 1.5 cm-tall median incision was performed with surgical scissors in the lower abdominal wall. The lower segment of the right uterine horn was then exposed and 1 μg of IL-1β was injected between two fetal membranes with care of not entering the amniotic cavity. The abdominal muscle layer was sutured and the skin closed with clips. One hundred μL of Compound 1 (1 mg/Kg/12 h), Kineret® (4 mg/Kg/12 h) or vehicle (sterile water) was injected subcutaneously in the neck 30 minutes before stimulation with IL-1β (to allow distribution of drugs to target tissues). Mice delivery was assessed every hour until term (G19-G19.5). Immediately after delivery, neonatal survival was assessed. Some pregnant mice were sacrificed before birth (24 h after the surgery) to either 1) perform caesarean section and photograph fetuses; 2) collect amniotic fluids; and 3) collect placentas. Only tissues and fluids from gestational sacs closer to the cervical end of the uterus were collected to ensure proximity with the IL-1β injection site. Tissues and fluids were snap-frozen in liquid nitrogen and kept at −80° C. for subsequent RNA purification or protein quantification by ELISA.\nMurine ELISA assays. […] The enzymatic reaction was stopped after 30 minutes and the plate was read at 450 nm, with wavelength correction set to 570 nm."}, "[2]": {"test_system": "lungs of pups from IL-1β-treated dams", "assay": "Lung histology (alveoli count, architecture) at PT15", "settings": "for damages to lung architecture caused by IL-1β: histology", "method": "One-way ANOVA compared to IL-1β+Veh. *p<0.05, ***p<0.001. Sham (n=6 pups), IL-1β (n=3 pups), IL-1β+Compound 1 (n=6 pups), IL-1β+Kin (n=8 pups).\n(§1) Histology. Intestines (from ileum to rectum) and lungs of post-term (PT) 15 mice were collected and fixed in 10% formalin during >48 h and were coated in paraffin. Samples were cut with a microtome (thickness=[…]) and mounted on lamella. Intestines were colored using hematoxylin-phloxine-saffron (HPS), whereas lungs were colored using H&E. Images were taken with a slidescanner (Axioscan®). Quantification of images was performed under blind evaluation of groups using Zen2 software.\nThe effect of gestational inflammation on the development of the exposed fetuses was studied. At post-term day (PT) 15, the pups from IL-1β-treated dams were sacrificed, and histological analysis of major organs known to be affected by prematurity/gestational inflammation (the lung, the intestines and the brain) was performed. For the lung, a blind count of alveoli was performed using ImageJ."}, "[3]": {"test_system": "intestines of pups from IL-1β-treated dams", "assay": "Histology of ileum and colon (crypts, resident lymph nodes)", "settings": "for atrophies in intestinal crypts of the ileum: histology; for number of resident lymph nodes in the colon / size of resident lymph nodes in the colon: relative to vehicle", "method": "FIG. 6A to 6D show representative histological analyses of the ileum of neonates from sham (FIG. 6A) and IL-1β-treated dams administered with vehicle (FIG. 6B), Compound 1 (FIG. 6C) or Kineret (FIG. 6D). Arrows indicate crypts. Scale, […].\nFIGS. 7A and 7B show the number and size, respectively, of resident lymph nodes in the colon of neonates from sham and IL-1β-treated dams administered with vehicle, Compound 1 or Kineret. Sham (n=6 pups), IL-1β (n=3 pups), IL-1β+Compound 1 (n=6 pups), IL-1β+Kin (n=8 pups).\nas §1\nPotential damages to the ileum and in the colon were evaluated by histologic analyses. In the ileum, pups from IL-1β-treated dams administered with vehicle had consistent atrophies in their intestinal crypts (FIG. 6B), and this was not observed following administration of compound 1 (FIG. 6C) or Kineret® (FIG. 6D). In the colon, the number of resident lymph nodes per cm, and their size, were measured. Since lymph nodes are part of the innate immunity and play an important role in the immune surveillance of the colon, the number and size of resident lymph nodes is a marker of the immune integrity/health of the intestine."}, "[4]": {"test_system": "IL-1β, IL-6, IL-8 and PGF2α in neonatal intestines", "assay": "ELISA of pro-inflammatory mediators in intestines of neonates", "settings": "neonates from IL-1β-treated dams; for levels of gut IL-6: relative to control", "method": "FIGS. 5A to 5D show the levels of the pro-inflammatory mediators IL-1p (FIG. 5A), IL-6 (FIG. 5B), IL-8 (FIG. 5C) and PGF2a (FIG. 5D) in the intestines of neonates from sham and IL-1β-treated dams administered with vehicle, Compound 1 or Kineret, as assessed by ELISA. One-way ANOVA compared to IL-1β+Veh. *p<0.05. n=4 pups in each groups.\nMurine ELISA assays. The ELISA assay was performed using mouse Quantikine™ ELISA kits against IL-1β or IL-6 (R&D Systems®; #MLBOOC, M6000B), IL-8 and PGF2α (MyBioSource®; #MBS261967, #MBS264160) according to the manufacturer's instructions. Briefly, tissues (lungs, intestines and brains) collected at birth were homogenized in RIPA buffer containing proteases and 50 μL of either lung, intestine, or brain samples, recombinant mouse IL-1β, IL-6, IL-8 or PGF2α positive control or decreasing concentrations of a recombinant mouse IL-1β, IL-6, IL-8 or PGF2α standard were loaded into a 96-well plate pre-coated with a monoclonal anti-mouse IL-1β antibody and incubated for 2 hours at ambient temperature. Wells were washed 5 times and incubated with an enzyme-linked mouse polyclonal antibody specific to murine IL-1β for 2 hours. After another washing step, a substrate solution was added. The enzymatic reaction was stopped after 30 minutes and the plate was read at 450 nm, with wavelength correction set to 570 nm."}},
  "note": "Non-standard residues stand in square brackets, D forms with d. Residues, ends and D or L forms follow the SMILES beside them. ξ: configuration not given here. dThr(3ξ) = CC(O)[C@@H](N)C(=O)O",
  "data": [
    {"compound": "CC(C)C[C@@H](NC(=O)[C@@H](CCC(=O)O)NC(=O)[C@H](NC(=O)[C@H](NC(=O)[C@@H](Cc1ccc(O)cc1)NC(=O)[C@H](N)CCCNC(=N)N)C(C)O)C(C)C)C(=O)N[C@H](C)C(N)=O", "note": "(stereo partly drawn) [compound 1] (H-[dR][dY][dThr(3ξ)][dV][dE][dL][dA]-NH2)", "values": [
      {"measurement": "levels of all pro-inflammatory mediators (IL-1β, IL-6, IL-8, PGF2α) in amniotic fluid", "setting": "[1]", "value": "significant reduction"},
      {"measurement": "damages to lung architecture caused by IL-1β", "setting": "[2]", "value": "prevents the damages to lung architecture"},
      {"measurement": "alveoli count per mm^2", "setting": "[2]; pups from IL-1β-treated dams", "value": "completely restored the alveoli count"},
      {"measurement": "number of alveoli per mm^2 compared with Kineret-treated group", "setting": "[2]; pups from IL-1β-treated dams", "value": "significantly higher"},
      {"measurement": "atrophies in intestinal crypts of the ileum", "setting": "[3]", "value": "not observed"},
      {"measurement": "number of resident lymph nodes in the colon", "setting": "[3]", "value": "prevented"},
      {"measurement": "size of resident lymph nodes in the colon", "setting": "[3]", "value": "prevented"},
      {"measurement": "increased IL-1β and IL-8 in neonatal intestines", "setting": "[4]", "value": "alleviated this effect"},
      {"measurement": "levels of gut IL-6", "setting": "[4]", "value": "clear trend toward decreased levels"}
    ]},
    {"compound": "Kineret: recombinant form of the human interleukin-1 receptor antagonist (IL-1Ra), purchased from Swedish Orphan Biovitrum AB", "values": [
      {"measurement": "IL-8 levels in amniotic fluid, extent of effect", "setting": "[1]; compared with compound 1", "value": "at a lower extent relative to compound 1"},
      {"measurement": "levels of all pro-inflammatory mediators (IL-1β, IL-6, IL-8, PGF2α) in amniotic fluid", "setting": "[1]", "value": "only had a significant effect on IL-8 levels"},
      {"measurement": "damages to lung architecture caused by IL-1β", "setting": "[2]", "value": "a more modest effect"},
      {"measurement": "alveoli count per mm^2", "setting": "[2]; pups from IL-1β-treated dams", "value": "only partially restored the alveoli count"},
      {"measurement": "atrophies in intestinal crypts of the ileum", "setting": "[3]", "value": "not observed"},
      {"measurement": "number of resident lymph nodes in the colon", "setting": "[3]", "value": "not increased at statistically significant levels"},
      {"measurement": "size of resident lymph nodes in the colon", "setting": "[3]", "value": "significant increase"},
      {"measurement": "levels of gut IL-6", "setting": "[4]", "value": "not observed"}
    ]}
  ]
}
